Test results published in PMC3675134, “Comprehensive Enzymatic Analysis of the Cellulolytic System in Digestive Fluid of the Sea Hare Aplysia kurodai. Efficient Glucose Release from Sea Lettuce by Synergistic Action of 45 kDa Endoglucanase and 210 kDa ß-Glucosidase” (PLoS ONE, 2013).

Assays:
210K ß-glucosidase [1] = system: T1, 210K ß-glucosidase; assay: cellobiose hydrolysis; Lineweaver-Burk; format: biochemical, Aplysia kurodai; conditions: read-out: 210 K; 37°C; printed unit doubtful: the printed Vmax/Km scale implies mM; heading: 210 K
T1 construct: gene 210K BGL; native, purified from digestive fluid; 210 kDa by SDS-PAGE; glycoprotein

210K ß-glucosidase [2] = target: T1, 210K ß-glucosidase; assay: inhibition of 4MU-ß-glucoside hydrolysis, fluorometric; Cornish-Bowden; format: biochemical, Aplysia kurodai; conditions: substrate 4MU-ß-glucoside; 37°C; mixed
Excerpt: inhibition of 4MU-ß-glucoside hydrolysis, fluorometric; Cornish-Bowden on 210K ß-glucosidase

110K ß-glucosidase [3] = target: T2, 110K ß-glucosidase (Aplysia kurodai, UniProt A0A1V1FXL2); assay: inhibition of 4MU-ß-glucoside hydrolysis, fluorometric; Lineweaver-Burk; format: biochemical; conditions: substrate 4MU-ß-glucoside; 37°C; competitive
T2 construct: gene ApBGL; native, purified from digestive fluid; 110 kDa by SDS-PAGE; glycoprotein
Excerpt: inhibition of 4MU-ß-glucoside hydrolysis, fluorometric; Lineweaver-Burk on 110K ß-glucosidase

210K ß-glucosidase [4] = system: T1, 210K ß-glucosidase; assay: 4-methylumbelliferone release, fluorometric; Lineweaver-Burk; format: biochemical, Aplysia kurodai; conditions: 37°C
Excerpt: 4-methylumbelliferone release, fluorometric; Lineweaver-Burk on 210K ß-glucosidase

110K ß-glucosidase [5] = target: T2, 110K ß-glucosidase; assay: inhibition of 4MU-ß-glucoside hydrolysis; format: biochemical; conditions: substrate 4MU-ß-glucoside; compound name doubtful (preceding sentence speaks of conduritol B epoxide)

T2 sequence (A0A1V1FXL2 24-994): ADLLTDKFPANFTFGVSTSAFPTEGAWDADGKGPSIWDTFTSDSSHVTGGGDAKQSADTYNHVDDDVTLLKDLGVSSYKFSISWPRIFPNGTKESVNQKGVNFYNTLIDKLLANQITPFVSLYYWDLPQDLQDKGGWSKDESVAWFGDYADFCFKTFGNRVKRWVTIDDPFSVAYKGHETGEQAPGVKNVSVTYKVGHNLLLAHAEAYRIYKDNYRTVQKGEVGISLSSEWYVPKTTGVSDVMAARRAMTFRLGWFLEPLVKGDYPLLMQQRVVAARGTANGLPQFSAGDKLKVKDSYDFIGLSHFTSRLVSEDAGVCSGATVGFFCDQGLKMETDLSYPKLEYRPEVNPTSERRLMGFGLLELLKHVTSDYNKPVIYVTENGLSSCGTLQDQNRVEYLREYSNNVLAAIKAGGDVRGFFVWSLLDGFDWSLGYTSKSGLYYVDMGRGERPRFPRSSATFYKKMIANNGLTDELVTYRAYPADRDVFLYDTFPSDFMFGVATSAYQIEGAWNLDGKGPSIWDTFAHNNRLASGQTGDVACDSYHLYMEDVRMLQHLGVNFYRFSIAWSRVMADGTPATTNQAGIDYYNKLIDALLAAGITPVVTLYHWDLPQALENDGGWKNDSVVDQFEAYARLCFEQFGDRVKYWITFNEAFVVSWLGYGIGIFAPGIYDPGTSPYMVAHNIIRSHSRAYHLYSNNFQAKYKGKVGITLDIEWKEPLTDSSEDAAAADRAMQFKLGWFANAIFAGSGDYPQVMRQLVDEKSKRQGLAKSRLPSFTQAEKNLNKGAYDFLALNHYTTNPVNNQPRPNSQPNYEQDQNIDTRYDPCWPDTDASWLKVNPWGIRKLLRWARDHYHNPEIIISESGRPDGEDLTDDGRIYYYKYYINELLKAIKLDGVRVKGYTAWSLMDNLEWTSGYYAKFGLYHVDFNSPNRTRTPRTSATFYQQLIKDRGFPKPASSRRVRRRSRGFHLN

**Q.** For `OC[C@H]1O[C@@H](O[C@H]2[C@H](O)[C@@H](O)C(O)O[C@@H]2CO)[C@H](O)[C@@H](O)[C@@H]1O` (stereo partly drawn) [cellobiose], which Km (210K ß-glucosidase [1]) is on record?
**A.** Its Km is 1.93 ± 0.15 mM.

**Q.** What does the source list for `O=C1O[C@H](CO)[C@@H](O)[C@H](O)[C@H]1O` [D-glucono-1,5-lactone]?
**A.** Ki (210K ß-glucosidase [2]): 8.1 ± 0.2 µM; Ki (110K ß-glucosidase [3]): 3.66 ± 0.47 µM

**Q.** How did the Km (210K ß-glucosidase [4]) turn out when `Cc1cc(=O)oc2cc(O[C@@H]3O[C@H](CO)[C@@H](O)[C@H](O)[C@H]3O)ccc12` [4MU-ß-glucoside] was run?
**A.** The Km was 105 ± 11 µM.

**Q.** How did the “% inhibition at 10 mM” value (110K ß-glucosidase [5]) turn out when Conduritol B-sulfate was run?
**A.** The value was 48%.

**Q.** How did the Km (210K ß-glucosidase [4]) turn out when `Cc1cc(=O)oc2cc(O[C@@H]3O[C@H](CO)[C@H](O)[C@H](O)[C@H]3O)ccc12` [4MU-ß-galactoside] was run?
**A.** Its Km is 199 ± 5 µM.
